Measurements: PubChem BioAssay (NCI)
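Dose response: 5 concentrations. Exposure: 48 h. Format: 96-well plates. Endpoint: linear interpolation; highest concentration if not reached. The concentration for full growth arrest is given as TGI.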

What was measured:
Test in all cases: NCI anticancer screen, dose series, 48 h
[1] = test system: TK-10 renal
[2] = test system: EKVX NSCLC
[3] = test system: NCI-H460 lung
[4] = test system: HCC-2998 colon
[5] = test system: MCF7 breast
[6] = test system: MDA-MB-435
[7] = test system: PC-3 prostate
[8] = test system: UACC-257 melanoma
[9] = test system: CAKI-1 renal
[10] = test system: SNB-19 CNS
[11] = test system: MOLT-4 leukemia
[12] = test system: HCT-116 colon
[13] = test system: RPMI-8226 leukemia
[14] = test system: HT29 colon
[15] = test system: HS 578T breast
[16] = test system: SK-MEL-2 melanoma
[17] = test system: NCI/ADR-RES ovarian
[18] = test system: OVCAR-8 ovarian
[19] = test system: KM12 colon
[20] = test system: LOX IMVI melanoma
[21] = test system: UO-31 renal
[22] = test system: MDA-MB-231 breast
[23] = test system: OVCAR-4 ovarian
[24] = test system: OVCAR-3 ovarian
[25] = test system: OVCAR-5 ovarian
[26] = test system: A549 NSCLC
[27] = test system: UACC-62 melanoma
[28] = test system: NCI-H226 lung
[29] = test system: BT-549 breast
[30] = test system: NCI-H23 lung
[31] = test system: COLO 205 colon
[32] = test system: CCRF-CEM leukemia
[33] = test system: U251 CNS
[34] = test system: RXF 393 renal
[35] = test system: HOP-62 NSCLC
[36] = test system: M14 melanoma
[37] = test system: 786-0 renal
[38] = test system: A498 renal
[39] = test system: SF-539 CNS
[40] = test system: ACHN renal
[41] = test system: SF-295 CNS
[42] = test system: SK-MEL-5 melanoma
[43] = test system: HOP-92 NSCLC
[44] = test system: SW-620 colon
[45] = test system: K-562 leukemia
[46] = test system: T-47D breast
[47] = test system: DU-145 prostate
[48] = test system: SK-MEL-28 melanoma
[49] = test system: HL-60(TB) leukemia
[50] = test system: IGROV1 ovarian
[51] = test system: SK-OV-3 ovarian
[52] = test system: SNB-75 CNS
[53] = test system: SF-268 CNS
[54] = test system: MDA-N
[55] = test system: MALME-3M melanoma
[56] = test system: NCI-H522 lung
[57] = test system: HCT-15 colon
[58] = test system: SN12C renal
[59] = test system: SR leukemia

SMILES: CC1=NN(c2nc(N)nc(/C(C#N)=C/c3ccc([N+](=O)[O-])o3)n2)C(C)(C)C1
- TGI [1]: 4.52 µM
- TGI [2]: 9.04 µM
- TGI [3]: 10.8 µM
- TGI [4]: 39.4 µM
- TGI [5]: 3.21 µM
- TGI [6]: 6.38 µM
- TGI [7]: 21.5 µM
- TGI [8]: 27.2 µM
- TGI [9]: 3.81 µM
- TGI [10]: 29.7 µM
- TGI [11]: 6.12 µM
- TGI [12]: 2.94 µM
- TGI [13]: > 22.8 µM
- TGI [14]: 4.37 µM
- TGI [15]: 71.4 µM
- TGI [16]: 16.7 µM
- TGI [17]: > 49.9 µM
- TGI [18]: 8.91 µM
- TGI [19]: 28.1 µM
- TGI [20]: 3.07 µM
- TGI [21]: 31.8 µM
- TGI [22]: 3.29 µM
- TGI [23]: 25.7 µM
- TGI [24]: 11.1 µM
- TGI [25]: 3.22 µM
- TGI [26]: 29.8 µM
- TGI [27]: 5.31 µM
- TGI [28]: 6.9 µM
- TGI [29]: 9.24 µM
- TGI [30]: 10.8 µM
- TGI [31]: 3.02 µM
- TGI [32]: > 100 µM
- TGI [33]: 11.3 µM
- TGI [34]: 3.21 µM
- TGI [35]: 31.3 µM
- TGI [36]: 2.75 µM
- TGI [37]: 2.99 µM
- TGI [38]: 32.6 µM
- TGI [39]: 12 µM
- TGI [40]: 3.49 µM
- TGI [41]: 33.8 µM
- TGI [42]: 17 µM
- TGI [43]: 3.4 µM
- TGI [44]: 3.71 µM
- TGI [45]: 1.13 µM
- TGI [46]: 7.05 µM
- TGI [47]: 17 µM
- TGI [48]: 19.1 µM
- TGI [49]: 6.32 µM
- TGI [50]: 3.82 µM
- TGI [51]: > 52.3 µM
- TGI [52]: 10.1 µM
- TGI [53]: 16.2 µM
- TGI [54]: > 100 µM
- TGI [55]: 4.23 µM

SMILES: COc1ccc(C2=C(Cl)c3cc(OC)c(OC)cc3C2=O)cc1OC
- TGI [1]: 25.6 µM
- TGI [2]: 37.9 µM
- TGI [4]: 38.9 µM
- TGI [5]: 27.9 µM
- TGI [6]: 29.4 µM
- TGI [8]: 15.5 µM
- TGI [9]: 4.24 µM
- TGI [10]: > 100 µM
- TGI [11]: > 100 µM
- TGI [12]: 15.2 µM
- TGI [13]: 87.1 µM
- TGI [14]: > 100 µM
- TGI [15]: 87.4 µM
- TGI [16]: 28 µM
- TGI [17]: 51.5 µM
- TGI [18]: 31.9 µM
- TGI [56]: 27 µM
- TGI [19]: 32.2 µM
- TGI [20]: 24.7 µM
- TGI [21]: 30.2 µM
- TGI [22]: 36.5 µM
- TGI [23]: 25.5 µM
- TGI [24]: 6.56 µM
- TGI [57]: 20.7 µM
- TGI [25]: 33.9 µM
- TGI [26]: > 100 µM
- TGI [27]: 29.6 µM
- TGI [28]: > 100 µM
- TGI [29]: 29.5 µM
- TGI [58]: 32.9 µM
- TGI [30]: 26.7 µM
- TGI [31]: 16.2 µM
- TGI [32]: > 100 µM
- TGI [34]: 18 µM
- TGI [35]: 30.4 µM
- TGI [59]: > 100 µM
- TGI [36]: 18.1 µM
- TGI [37]: 10.7 µM
- TGI [38]: 32 µM
- TGI [39]: 35.9 µM
- TGI [40]: 17.2 µM
- TGI [41]: > 100 µM
- TGI [42]: 31.7 µM
- TGI [43]: 4 µM
- TGI [44]: 31.3 µM
- TGI [46]: 10.9 µM
- TGI [47]: 32.7 µM
- TGI [49]: > 100 µM
- TGI [50]: 32.1 µM
- TGI [51]: 36.9 µM
- TGI [52]: > 100 µM
- TGI [53]: 35.9 µM
- TGI [54]: 38.3 µM
- TGI [55]: 26 µM
